# Data: PMC4319760, “Rapid Identification of α-Glucosidase Inhibitors from Phlomis tuberosa by Sepbox Chromatography and Thin-Layer Chromatography Bioautography” (PLoS ONE, 2015)
# Biological target: α-Glucosidase
# Test: α-Glucosidase inhibitory activity assay (4-nitrophenyl α-glucopyranoside substrate, absorbance at 405 nm)
# Format: biochemical, Saccharomyces cerevisiae
# Conditions: 0.26 U/mL enzyme, pH 6.8, 37°C; mean ± SEM, triplicate
# Protocol: After incubation at 37°C for 10 min, 100 μL of the substrate, 4-nitrophenyl α-glucopyranoside (5 mM, in potassium phosphate buffer) was added to the mixture. The enzymatic reaction was allowed to proceed at 37°C for 20 min and stopped by addition of 100 μL of 0.2 M NaCO3. 4-Nitrophenol absorptions were subsequently measured at 405 nm using a spectrophotometer. […] The IC50 value was defined as the concentration of α-glucosidase inhibitor required to inhibit 50% of α-glucosidase activity under the assay conditions. Experiments were performed in triplicate, and all results are expressed as mean ± SEM.
row,Compound,IC50 [mM]
1,"C[C@@H]1O[C@@H](O[C@@H]2[C@@H](O)[C@H](OCCc3ccc(O)c(O)c3)O[C@H](CO)[C@H]2OC(=O)/C=C/c2ccc(O)c(O)c2)[C@H](O)[C@H](O)[C@H]1O [Compound 7, acteoside]",0.518 ± 0.017
2,"CC1OC(Oc2c(-c3ccc(O)c(O)c3)oc3cc(O)cc(O)c3c2=O)C(O)C(O)C1O (centres unmarked) [Compound 12, quercetin-3-rhamnoside]",0.562 ± 0.021
3,"CC1=C(CCc2ccoc2)C2(C)CCCC(C)(CO)C2CC1 (centres unmarked) [Compound 4, 15,16-eposy-8,13(16),14-labdatrien-19-ol]",0.067 ± 0.003
4,"CC1=C(CCc2ccoc2)C2(C)CCCC(C)(C(=O)O)C2CC1 (centres unmarked) [Compound 5, phlomisoic acid]",0.482 ± 0.019
5,"CC1=C(CCc2ccoc2)C2(C)CCCC(C)(C)C2CC1 (centres unmarked) [Compound 6, 15,16-eposy-8,13(16),14-labdatrien]",0.21 ± 0.01
6,"CC1(C(=O)O)CCCC2(C)c3c(C=O)c4c(c(O)c3CCC12)COC4=O (centres unmarked) [Compound 1, 14-hydroxyabieta-8,11,13-triene-11-carbaldehyde-18-oic-12-carboxy-13-(1-hydroxy-1-methylethyl)-lactone]",0.379 ± 0.016
7,"CC1(C(=O)O)CCCC2(C)c3cc4c(c(O)c3CCC12)COC4=O (centres unmarked) [Compound 2, 14-hydroxyabieta-8,11,13-triene-17-oic-12-carboxy-13-(1-hydroxy-1-methylethyl)-lactone]",0.624 ± 0.026

# Now from value to molecule:
row,IC50 [mM],Compound
1,0.255 ± 0.013,"CCC/C=C/C=C/c1c(O)cc(CC=C(C)C)c(O)c1C=O [Compound 19, dihydroauroglaucin]"
2,0.229 ± 0.017,"CCCCCCCc1c(O)cc(CC=C(C)C)c(O)c1C=O [Compound 17, flavoglaucin]"
3,0.371 ± 0.015,"CCCCCc1cc2c(C=O)c(O)c(CC=C(C)C)cc2o1 [Compound 20, 2-(2′,3-epoxy-1′-heptenyl)-6-hydroxy-5-(3″-methyl-2″-butenyl) benzaldehyde]"
4,0.428 ± 0.018,"O=c1cc(-c2ccc(O)c(O)c2)oc2cc(O)cc(O)c12 [Compound 11, luteolin]"
5,0.283 ± 0.013,"CCCCC/C=C/c1c(O)cc(CC=C(C)C)c(O)c1C=O [Compound 18, tetrahydroauroglaucin]"
6,1.2 ± 0.032,"C[C@@H]1O[C@@H](O[C@@H]2[C@@H](O)[C@H](OCCc3ccc(O)c(O)c3)O[C@H](COC(=O)/C=C/c3ccc(O)c(O)c3)[C@H]2O)[C@H](O)[C@H](O)[C@H]1O [Compound 8, isoacteoside]"

# Test system: α-D-glucosidase
# Test: TLC bioautographic assay for α-glucosidase inhibitors
# Format: biochemical
# Conditions: S1 Fig, subfractions 20 μL, ethyl acetate fraction 5 mg/mL, acarbose 1 mg/mL, 4 μL, qualitative
# From the text: In the present work, a high-performance thin-layer chromatographic system (CAMAG, Switzerland) equipped with an automatic TLC Sampler 4 and a Reprostar 3 with a 12-bit charge-coupled device camera for photo-documentation and controlled by WinCATS-4 software was used. […] After migration of the samples with appropriate solvents or no migration, the plates were inspected under ultraviolet light (366 nm) and then subjected to bioautographic assay as described below.
# TLC bioautographic assay: TLC bioautographic assay was carried out as described previously in terms of reaction principle and response system but with slight modifications. First, the concentration of α-glucosidase was reduced from 10 U/mL to 2.5 U/mL. Second, the plate was dipped into the reaction solutions (including the enzyme solution, the substrate solution, and the coloration solution), instead of being sprayed with them. Third, the conditions for enzyme incubation were changed from room temperature for 60 min to 37°C for 30 min. Briefly, α-D-glucosidase (750 U) was dissolved in 75 mL of buffer solution (10.25 g of sodium acetate in 250 mL with addition of 0.1 M acetic acid to pH 7.5). The stock solution was kept at -20°C. A stock solution of 25 mL was diluted with the same buffer solution to 100 mL as the enzyme solution, and a substrate solution of 1 mg/mL 2-naphthyl-α-D-glucopyranoside in ethanol was prepared. […]
row,Compound,"α-glucosidase inhibitory activity in bioautographic chromatogram (white spots), screening"
1,"C[C@H]1O[C@H](O[C@H]2[C@H](O)[C@@H](O)[C@@H](O[C@H]3[C@H](O)[C@@H](O)C(O)O[C@@H]3CO)O[C@@H]2CO)[C@H](O)[C@@H](O)[C@@H]1N[C@H]1C=C(CO)[C@@H](O)[C@H](O)[C@H]1O (some centres unmarked) [Acarbose, acarbose]",produced white spots

# Test system: not given
# Test: not given
# Design: method as in PMID 23850835, PMID 18460146
# Conditions: previous toxicity studies; ref [23]–[25]; cited from earlier work
row,Compound,toxicity
1,"C[C@@H]1O[C@@H](O[C@@H]2[C@@H](O)[C@H](OCCc3ccc(O)c(O)c3)O[C@H](CO)[C@H]2OC(=O)/C=C/c2ccc(O)c(O)c2)[C@H](O)[C@H](O)[C@H]1O [Compound 7, acteoside]",nontoxic
2,"CC1OC(Oc2c(-c3ccc(O)c(O)c3)oc3cc(O)cc(O)c3c2=O)C(O)C(O)C1O (centres unmarked) [Compound 12, quercetin-3-rhamnoside]",nontoxic
3,"COc1ccc(-c2cc(=O)c3c(O)cc(OC4OC(COC5OC(C)C(O)C(O)C5O)C(O)C(O)C4O)cc3o2)cc1 (centres unmarked) [Compound 10, acacetin-7-rutinoside]",nontoxic
